Measurements published in patent US20030065039A1, “Biologically active 1,3-bis-aromatic-prop-2-en-1-ones, 1,3-bis-aromatic-propan-1-ones, and 1,3-bis-aromatic-prop-2-yn-1-ones” (Statens Serum Institute, priority 1997, published 2003).
Like-named read-outs stand apart in the source and are kept apart here.

Key:
Simliki forest virus = test: Antiviral activity in Vero cell cultures; type: cell-based; conditions: Vero cells; values given as fractions
Experimental: (§1) IC50 values are determined by the virus plaque formation and/or the virus cytopathic assay using standard methods well-known in the art.
(§2) In the following is reported the results from a Vero cell culture infected with different viruses. The cell culture used as well as the methods applied are well known to a person skilled in the art.

Parainfluenza-3 Virus = test: Antiviral activity in Vero cell cultures; type: cell-based; conditions: Vero cells; values given as fractions
Experimental: as §1, §2

Reovirus-1 = test: Antiviral activity in Vero cell cultures; type: cell-based; conditions: Vero cells; values given as fractions
Experimental: as §1, §2

Coxsackie virus B4 = test: Antiviral activity in Vero cell cultures; type: cell-based; conditions: Vero cells; values given as fractions
Experimental: as §1, §2

Sindbis virus = test: Antiviral activity in Vero cell cultures; type: cell-based; conditions: Vero cells; values given as fractions
Experimental: as §1, §2

Vero cell cultures = test: Cytotoxicity in Vero cell cultures; type: cell-based; conditions: Vero cells; values given as fractions, footnote a not given
Source text: as §2

[1] = system: cytomegalovirus Davis strain; test: Activity against cytomegalovirus in HEL cells (plaque formation); type: cell-based; conditions: virus plaque formation reduced by 50%, 100 PFU, values given as fractions
Experimental: as §1

[2] = system: cytomegalovirus AD-169 strain; test: as above; type: cell-based; conditions: virus plaque formation reduced by 50%, 100 PFU, values given as fractions
Experimental: as §1

[3] = Preliminary 14 days oral toxicity study in rats; type: in vivo; conditions: highest dose level 1000 mg/kg/day
Experimental: A preliminary 14 days oral toxicity study in rats was carried out with 6 compounds. Observations included clinical signs, body weights, food intake, haematology, clinical chemistry and macroscopic pathology.

Leishmania promastigotes = Leishmania promastigotes Assay; type: cell-based; conditions: Leishmania; promastigotes, 3H-thymidine uptake; read-out: Leishmania IC50 ± SD
How it was run: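 L. major (WHO Iran vaccine strain) and L. donovani MHOM/KE/85/NLB 274 promastigotes (3×10^6/ml, day 3 and 6 cultures) exposed to compound 2 h at 26 °C, then 3H-thymidine 18 h; incorporation counted by scintillation. Microscopic counts and flagellar motility also assessed.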

[4] = system: human embryonic lung (HEL) cells; test: Cytotoxicity in human embryonic lung (HEL) cells; type: cell-based; conditions: HEL cell growth reduced by 50%; values given as fractions
human lymphocytes = test: Lymphocyte Proliferation Assay; type: cell-based; conditions: Lymphocyte; PHA provoked proliferation of human lymphocytes; read-out: Lymphocytes IC50 ± SD
How it was run: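 Ficoll-isolated human blood mononuclear cells (0.63×10^5/ml) in RPMI 1640 with 5% FCS were cultured in triplicate with test compound and PHA or PPD for 3 or 7 days. Proliferation measured by ^3H-thymidine incorporation over the final 24 h; triplicate median recorded.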

Plasmodium falciparum = Plasmodium falciparum Assay; type: cell-based; conditions: Plasmodium falciparum; 3-H-hypoxanthine incorporation, 48 hours; read-out: Plasmodium IC50 ± SD
How it was run: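 Parasitized erythrocytes (~1% parasitemia, 5×10^8/ml) cultured 48 h in RPMI with test compound, with 3H-hypoxanthine added for the last 24 h. Growth inhibition read as 3H-hypoxanthine incorporation into parasite DNA by liquid scintillation; uninfected and untreated infected cultures run in parallel.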

mouse lymphoma tk = test: Mouse lymphoma tk assay
Source text: Following selection of SBC-35ma (3,5-dimethoxy-4′-allyloxychalcone) as a development candidate, this compound was studied in vitro using the chromosomal aberration assay with CHO cells and the mouse lymphoma tk assay.
In the screening design, three known drugs were included, namely chloroquine, pyrimethamine and artesunate.

[5] = target: T1, succinate dehydrogenase of Helicobacter pylori (Helicobacter pylori, UniProt O06913); type: biochemical
T1 construct: endogenous in cells; host or cells: Helicobacter pylori (preparation for the SDH measurement not described; sonicate mentioned for FRD)
T1 sequence (O06913 1-714): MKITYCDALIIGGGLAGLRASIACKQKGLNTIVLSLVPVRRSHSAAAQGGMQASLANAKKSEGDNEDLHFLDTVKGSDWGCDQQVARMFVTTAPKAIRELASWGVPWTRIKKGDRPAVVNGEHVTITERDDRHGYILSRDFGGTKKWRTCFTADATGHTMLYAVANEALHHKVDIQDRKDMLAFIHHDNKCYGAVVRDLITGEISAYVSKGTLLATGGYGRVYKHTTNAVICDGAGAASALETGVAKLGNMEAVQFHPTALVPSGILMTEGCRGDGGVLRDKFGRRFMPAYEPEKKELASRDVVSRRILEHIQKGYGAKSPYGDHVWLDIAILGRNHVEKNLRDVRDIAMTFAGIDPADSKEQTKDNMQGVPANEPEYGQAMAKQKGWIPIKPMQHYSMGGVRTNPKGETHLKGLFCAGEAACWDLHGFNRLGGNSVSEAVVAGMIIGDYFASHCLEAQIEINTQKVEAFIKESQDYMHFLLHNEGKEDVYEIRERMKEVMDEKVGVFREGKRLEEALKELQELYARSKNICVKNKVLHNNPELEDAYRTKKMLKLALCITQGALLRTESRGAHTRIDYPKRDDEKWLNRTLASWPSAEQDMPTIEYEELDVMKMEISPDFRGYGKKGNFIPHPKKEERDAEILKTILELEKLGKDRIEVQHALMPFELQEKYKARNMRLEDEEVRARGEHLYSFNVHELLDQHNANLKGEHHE
T1 sequence (O06914 1-245 partner): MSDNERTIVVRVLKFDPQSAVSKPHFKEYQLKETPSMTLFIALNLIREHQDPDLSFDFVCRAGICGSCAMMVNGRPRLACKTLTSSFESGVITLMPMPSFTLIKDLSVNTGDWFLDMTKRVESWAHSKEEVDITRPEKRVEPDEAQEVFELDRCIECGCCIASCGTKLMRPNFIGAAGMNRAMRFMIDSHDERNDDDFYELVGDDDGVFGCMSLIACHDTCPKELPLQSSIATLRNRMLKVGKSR
T1 sequence (O06912 1-255 partner): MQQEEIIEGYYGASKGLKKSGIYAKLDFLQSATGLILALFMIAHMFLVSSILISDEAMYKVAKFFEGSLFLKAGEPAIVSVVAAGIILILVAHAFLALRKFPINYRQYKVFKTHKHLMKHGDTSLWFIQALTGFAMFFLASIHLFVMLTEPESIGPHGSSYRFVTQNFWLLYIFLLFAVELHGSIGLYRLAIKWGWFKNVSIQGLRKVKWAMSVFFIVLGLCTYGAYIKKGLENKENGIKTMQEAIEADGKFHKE

[6] = target: T2, Helicobacter pylori fumarate reductase (Helicobacter pylori, UniProt O06913); type: biochemical
T2 construct: Membrane associated proteins were solubilized from the pellet in 150 mM KCl, pH 7.0; endogenous in cells; host or cells: Helicobacter pylori 007 strain; KCl-solubilised fraction (or sonicate supernatant)
T2 sequence (O06913 1-714): T1 sequence (O06913 1-714)
T2 sequence (O06914 1-245 partner): T1 sequence (O06914 1-245 partner)
T2 sequence (O06912 1-255 partner): T1 sequence (O06912 1-255 partner)
Experimental: 1) Extraction of soluble FRD: Bacteria were harvested by centrifugation at 18,000 g for 10 min at 4° C., and were washed 2 times in an isotonic phosphate saline buffer (50 mM sodium phosphate, pH 7.2, 90 mM NaCl, 5 mM Kcl). Bacteria were lysed in 5 mM Tris-HCl, pH 7.4, for 15 minutes, and centrifuged 18,000 g for 10 minutes. Membrane associated proteins were solubilized from the pellet in 150 mM KCl, pH 7.0, in ice bath for 60 min, and then the supernatant was collected after centrifugation (18,000 g for 10 minutes) for the measurement of FRD activity.
2) Extraction of FRD by sonication: Bacteria were harvested by centrifugation at 18,000 g for 10 min at 4° C., were sonicated, and then the supernatant was collected after centrifugation (18,000 g for 10 minutes) for the measurement of FRD activity.
NADH-FRD activity was determined as the rate of NADH-oxidation upon addition of 1 mM fumarate in the KCl-solubilized fraction or sonicated fraction. The reaction was monitored spectrophotometrically at 340 nm (∈=6.2 mM^−1 cm^−1) using 100 μM NADH and usually 3 mg protein in both reference and sample cuvettes. The measurement was carried out in a Shimadzu UV-190 double-beam spectrophotometer. Protein concentrations were determined using a Bio-Rad protein assay (Bio-Rad Laboratories, 200 Alfred Nobel Dr. Hercules, Calif. 94547, USA).
KCl solubilised fraction of bacteria was incubated with different concentrations of various oxygenated chalcones at 28° C. and the remaining FRD activity was measured. The IC50 values were determined as the concentration at which 50% of the activity was inhibited.

C=CCOc1ccc(C(=O)/C=C/c2ccc(OC)c(OC)c2)cc1 [34m4′ac, 3,4-dimethoxy-4′-allyloxychalcone]
Minimum inhibitory concentration, Simliki forest virus (Simliki forest virus): 1/2000 | Minimum inhibitory concentration, Parainfluenza-3 Virus (Parainfluenza-3 Virus): 1/6000 | Minimum inhibitory concentration, Reovirus-1 (Reovirus-1): <1/100 | Minimum inhibitory concentration, Coxsackie virus B4 (Coxsackie virus B4): 1/60000 | Minimum inhibitory concentration, Sindbis virus (Sindbis virus): 1/60000 | Minimum Cytotoxic Concentration (Vero cell cultures): <1/100 | Antiviral activity IC50, Davis strain, Assay 1 [1]: 1/100 | Antiviral activity IC50, AD-169 strain, Assay 1 [2]: <1/30 | toxic effects [3]: No toxic effects | IC50 (Leishmania promastigotes): 60 ± 5 µM | Cytotoxicity CC50 [4]: <1/30 | IC50 (human lymphocytes): 51 ± 6 µM | IC50 (Plasmodium falciparum): 32 µM

CCN(CC)CCCC(C)Nc1ccnc2cc(Cl)ccc12 (centres unmarked) [Chloroquine, chloroquine]
mouse lymphoma tk assay, screening design (mouse lymphoma tk; with S9 mix): questionable negative

O=C(O)/C=C/C(=O)O [Fumarate]
activity of succinate dehydrogenase [5]: concentration-dependent inhibitory effect

C[C@H]1[C@H](OC(=O)CCC(=O)O)O[C@@H]2O[C@@]3(C)CC[C@H]4[C@H](C)CC[C@@H]1[C@@]24OO3 [artesunate]
mouse lymphoma tk assay, screening design (mouse lymphoma tk): positive

CCc1nc(N)nc(N)c1-c1ccc(Cl)cc1 [pyrimethamine]
mouse lymphoma tk assay, screening design (mouse lymphoma tk): negative

antimycin [reference compound]
activity of NADH-fumarate reductase [6]: could not inhibit it | activity of succinate dehydrogenase [5]: could no inhibit it

malonate
activity of succinate dehydrogenase [5]: concentration-dependent inhibitory effect
